The source of these data is US10828350B1, “Topical and orally administered protease inhibitors and bacterial vectors for the treatment of disorders and methods of treatment” (priority 2014, dated 2020).

In the assay the test system is trypsin. The assay is described as follows: Petri plate assay detecting zones of protease protection by protease inhibitors or bacterial strains after flooding with trypsin. It counts as biochemical. The note with it: for relative size of zone of inhibition (diffusion zone): casein plates, to a lesser degree gelatin plates, compared among leupeptin, aprotinin and α-2-macroglobulin. An excerpt:
Because the protocol is destructive to the plate assayed, a duplicate or replica plate is generated and retained for identification and further analysis of the strains using methods known to those skilled in the arts. The initial step is the exposure of the protease detection plate to a protease inhibitor or bacterial growth. Either commercially available protease inhibitor peptides or growth of bacterial strains on the protease detection plates can be detected. […] The bacterial strains Photorabdus (Xenorhabdus) luminescens strain Hm primary and secondary forms where the secondary and not the primary form is known to secrete a protease inhibitor and the other strains are negative controls (Wee et al. 2000, A new broad-spectrum protease inhibitor from the entomopathogenic bacterium Photorhabdus luminescens. Microbiology 146: 3141-3147), Citrobacter freundii (ATCC #33128), Staphylococcus aureus, S. epidermidis and Enterococcusfaecalis are allowed to grow two days at 30° C. in air.
The base media can be any microbiological media designed to facilitate the growth of cultivable microorganism; different media can be used to favor different strains as appropriate (Kreig, 1981, Chapter 8, Enrichment and Isolation, p. 112-142 in Manual of Methods for General Bacteriology, Gerhardt et al., eds, American Society for Microbiology, Washington, D.C.). Variations on the type of protease being targeted, the protease substrate and cognate inhibitors are shown in Table 1 and used as a guide in the modification of media. A casein base media based on that of Vijayaraghavan and Vincent (2013, A simple method for the detection of protease activity on agar plates using bromochresol green dye, J. Biochem. Tech. 4: 628-630), which contained 5 grams of peptone, 1.5 grams of yeast extract, 1.5 grams of sodium chloride per liter with, except that the casein 0.5% is used (instead of 1.0%) and dissolved as described by Montville (1983, Dual-substrate plate diffusion assay for proteases, Appl Environ Microbiol 45: 200-204) using 0.02 N NaOH. When bromochresol green (BCG) is added directly to the media, 0.0015% is used. BCG preincorporated into the media as well as post incubation addition of a BCG dye reagent containing 0.028% BCG dissolved in 0.56% (w/v) succinic acid, 0.1% (w/v) NaOH (Vijayaraghavan and Vincent; 2013) with 0.6% Brij-35 and then acidified to pH 4.2 can also be used following exposure to a protease inhibitor or bacterial growth and subsequent exposure to a protease. After staining and then destaining in water the by completely removing the agar from the lower plastic, the plates are observed for the presence and absence of protein. Ponseau S staining by flooding the plate with 5 ml of the stain containing 0.1% Ponseau S (PS; Sigma, St. Louis, Mo.) and 5% acetic acid in water for 1-2 hrs and then marking the agar with a 23 ga syringe needle dipped in India ink at a corresponding register marked on the plastic petri plate, removing the agar from the plate and destaining overnight in water before observing them and is highly sensitive.
A gelatin based media (Medina and Baresi 2007, Rapid identification of gelatin and casein hydrolysis using TCA, J Microbiol Meth 69: 391-393) which uses 40 grams per liter of tryptic soy agar powder without glucose (Becton Dickinson, Sparks, Md.) modified to contain 8 g of gelatin (instead of 16 g) per liter may be preferable for certain organisms depending upon their growth requirements and is used as is appropriate. Approximately 5 ml of 20% trichloroacetic acid (TCA; Thermo Fisher, Waltham, Mass.) was used for protein precipitation per petri plate. This media can also be combined with preincorporated BCG, or post-incubation BCG dye reagent or Ponseau S, each as described above for the casein plates. […]

Where [1] appears, read: BCG-containing plates further stained with PS, 0.625 mg/ml trypsin for casein, 0.0625 mg/ml for gelatin (FIG. 2B).
[2] abbreviates: casein plates with preincorporated BCG, before PS staining (FIG. 2A).

Turning to `CC(=O)N[C@@H](CC(C)C)C(=O)N[C@@H](CC(C)C)C(=O)N[C@H](C=O)CCCNC(=N)N` [Leupeptin, leupeptin], the “relative size of zone of inhibition (diffusion zone)” value was “notably larger”. The “visualization of zone of protease protection” value (from here on “visualization”) under setting [1] is reported as “able to visualize”.
On to `CC(C)C[C@H](NC(=O)[C@@H](O)[C@H](N)Cc1ccccc1)C(=O)O` [bestatin], for which, under setting [1], the “visualization” value is “no staining”.
Turning to aprotinin [Aprotonin], the “visualization” value reads like this: under setting [1], “able to visualize”; under setting [2], “faintly visualize”.

B1: α-2-macroglobulin (protein, UniProt P01023 24-1474, looked up)
Alpha-2-macroglobulin: SVSGKPQYMVLVPSLLHTETTEKGCVLLSYLNETVTVSASLESVRGNRSLFTDLEAENDVLHCVAFAVPKSSSNEEVMFLTVQVKGPTQEFKKRTTVMVKNEDSLVFVQTDKSIYKPGQTVKFRVVSMDENFHPLNELIPLVYIQDPKGNRIAQWQSFQLEGGLKQFSFPLSSEPFQGSYKVVVQKKSGGRTEHPFTVEEFVLPKFEVQVTVPKIITILEEEMNVSVCGLYTYGKPVPGHVTVSICRKYSDASDCHGEDSQAFCEKFSGQLNSHGCFYQQVKTKVFQLKRKEYEMKLHTEAQIQEEGTVVELTGRQSSEITRTITKLSFVKVDSHFRQGIPFFGQVRLVDGKGVPIPNKVIFIRGNEANYYSNATTDEHGLVQFSINTTNVMGTSLTVRVNYKDRSPCYGYQWVSEEHEEAHHTAYLVFSPSKSFVHLEPMSHELPCGHTQTVQAHYILNGGTLLGLKKLSFYYLIMAKGGIVRTGTHGLLVKQEDMKGHFSISIPVKSDIAPVARLLIYAVLPTGDVIGDSAKYDVENCLANKVDLSFSPSQSLPASHAHLRVTAAPQSVCALRAVDQSVLLMKPDAELSASSVYNLLPEKDLTGFPGPLNDQDNEDCINRHNVYINGITYTPVSSTNEKDMYSFLEDMGLKAFTNSKIRKPKMCPQLQQYEMHGPEGLRVGFYESDVMGRGHARLVHVEEPHTETVRKYFPETWIWDLVVVNSAGVAEVGVTVPDTITEWKAGAFCLSEDAGLGISSTASLRAFQPFFVELTMPYSVIRGEAFTLKATVLNYLPKCIRVSVQLEASPAFLAVPVEKEQAPHCICANGRQTVSWAVTPKSLGNVNFTVSAEALESQELCGTEVPSVPEHGRKDTVIKPLLVEPEGLEKETTFNSLLCPSGGEVSEELSLKLPPNVVEESARASVSVLGDILGSAMQNTQNLLQMPYGCGEQNMVLFAPNIYVLDYLNETQQLTPEIKSKAIGYLNTGYQRQLNYKHYDGSYSTFGERYGRNQGNTWLTAFVLKTFAQARAYIFIDEAHITQALIWLSQRQKDNGCFRSSGSLLNNAIKGGVEDEVTLSAYITIALLEIPLTVTHPVVRNALFCLESAWKTAQEGDHGSHVYTKALLAYAFALAGNQDKRKEVLKSLNEEAVKKDNSVHWERPQKPKAPVGHFYEPQAPSAEVEMTSYVLLAYLTAQPAPTSEDLTSATNIVKWITKQQNAQGGFSSTQDTVVALHALSKYGAATFTRTGKAAQVTIQSSGTFSSKFQVDNNNRLLLQQVSLPELPGEYSMKVTGEGCVYLQTSLKYNILPEKEEFPFALGVQTLPQTCDEPKAHTSFQISLSVSYTGSRSASNMAIVDVKMVSGFIPLKPTVKMLERSNHVSRTEVSSNHVLIYLDKVSNQTLSLFFTVLQDVPVRDLKPAIVKVYDYYETDEFAIAEYNAPCSKDLGNA
In the case of B1, the “relative size of zone of inhibition (diffusion zone)” value is recorded as “smallest diffusion zone”. Further, under setting [1], the “visualization” value was “able to visualize”. Also, the “diffusion distance of inhibitor on plate” value (casein BCG plate, PS stained (FIGS. 5A and 5B)) is reported as “diffused only a short distance”. Besides, the “visualization” value under setting [2] is “faintly visualize”.
